The results in this text go back to patent US20230312587A1, “PTERIDINONE COMPOUNDS AND USES THEREOF” (Vertex Pharmaceutical Incorporated, priority 2018, published 2023).

The test system of assay [1] is β-catenin-TCF-mediated reporter transcription activity in Colo 205 cells. Nature of the assay: Colo 205 reporter assay (TCF/LEF luciferase). Type of assay: cell-based. Particulars: Homo sapiens, COLO 205, 5 h, Colo 205 TCF/LEF luciferase reporter, five hours after addition of compound; read-out: TCF reporter Colo205 IC50. A digest of the protocol: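 Luciferase signal from a TCF/LEF-driven reporter, stably integrated in Colo 205 colon cancer cells, was measured 5 h after compound addition.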

Assay [2] concerns Colo205-TCF/LEF-Luciferase (Luc) tumor. Nature of the assay: In vivo inhibition of TCF/LEF reporter activity in Colo-205 tumors. Also on record: concentration or dose not given beside the values. The note with it: TCF/LEF luciferase reporter in Colo-205 tumors, nu/nu mice, oral gavage. As for the experimental part: Colo205-TCF/LEF-Luciferase (Luc) tumor cells were expanded in complete DMEM cell culture media [DMEM (Life Technologies, product #11960-051) media supplemented with 10% FBS (Hyclone, catalog #SH30071.03), antimycotic/antibiotic (Life Technologies, product #15240-062), and Glutamax (Life Technologies, product #35050-061)] with 1 ug/ml puromycin. After reaching confluency/high density, the loosely attached cells in media were transferred from the flask to 50 ml conical tubes. Tumor cells adhered to plastic were detached with trypsin and combined with cells in the conical tubes. The tumor cells were triturated, counted, and pelleted by centrifugation. Cell pellets were resuspended in 0.9% injectable saline (6×10^7 cells/ml). A 50 ul volume (3×10^6 cells) was injected subcutaneously in the flanks of 4-6 wk old female nu/nu mice (Charles River Laboratories). Approximately 13-16 days after implantation, tumors between 200-500 mm^3 were selected (based on caliper measurements and applying the formula […]) and randomized into groups of n=4. Mice were dosed by oral gavage with compound dissolved in 1:3:5:1 EtOH:DMSO:PEG-400:H2O at a rate of 10 ml/kg or 1:3:5:1 EtOH:DMSO:PEG-400:H2O alone (Vehicle Control). Tumors were collected from mice euthanized by CO2 inhalation and snap frozen in liquid nitrogen. Tumors were stored in a −80 degrees C. freezer until they were processed.
Tumors were thawed on ice and homogenized in cold Lysis Buffer (20 mM Tris-HCl (pH 7.5), 150 mM NaCl, 1 mM Na2EDTA, 1 mM EGTA, 1% Triton, 2.5 mM sodium pyrophosphate, 1 mM beta-glycerophosphate, 1 mM Na3VO4, 1 μg/ml leupeptin, 0.05% SDS) using a closed tissue grinder system (Fisher Scientific, Cat #02-542-09) on ice according to manufacturer's instructions. For 100 mg of tumor, 500 uL of Lysis Buffer was used. Tumor lysate was transferred to a pre-chilled microcentrifuge tube and centrifuged at 10,000×g for 10 minutes at 4 degrees C. Supernatant was transferred to a new pre-chilled microcentrifuge tube and was used immediately for analysis of protein content and luciferase activity.
Protein content of tumor lysate supernatant was determined using the BCA assay (Life Technologies Cat #23225). Luciferase activity of tumor lysate supernatant was determined by addition of Steady-Glo luminescence reagent (Promega, Cat #E2550) according to manufacturer's instructions and measurement on a Pherastar luminescence plate reader (BMG Labtech). Luciferase activity was normalized to protein content.

Consider `Cc1nc(NCc2cnn(Cc3ccc(F)cc3C#N)c2)nc2c1N(C)C(=O)[C@H](C)N2C` [Compound 63, (7S)-5-fluoro-2-((4-(((4,5,7,8-tetramethyl-6-oxo-5,6,7,8-tetrahydropteridin-2-yl)amino)methyl)-1H-pyrazol-1-yl)methyl)benzonitrile], for which, in assay [1], the half-maximal inhibitory concentration (IC50) is under 0.3 µM. The “Percent Remaining Activity at 8 hrs after Dosing” value (shortened to “Percent Remaining Activity”) in assay [2] stood at 9%.
In the same order, the values of `Cc1nc(NCc2cnn(Cc3ccc(OC(C)C)nc3)c2)nc2c1NC(=O)[C@H](C)N2C` [Compound 135, (7S)-2-(((1-((6-isopropoxypyridin-3-yl)methyl)-1H-pyrazol-4-yl)methyl)amino)-4,7,8-trimethyl-7,8-dihydropteridin-6(5H)-one] are under 0.3 µM and 43%.
In the case of `Cc1nc(NCc2cnn([C@H]3C[C@H]3c3ccc(F)cc3)c2)nc2c1NC(=O)[C@H](C)N2C` [Compound 155, (7S)-2-(((1-((1S,2S)-2-(4-fluorophenyl)cyclopropyl)-1H-pyrazol-4-yl)methyl)amino)-4,7,8-trimethyl-7,8-dihydropteridin-6(5H)-one], the IC50 in assay [1] was under 0.3 µM. The “Percent Remaining Activity” value in assay [2] is on record as 17%.
With `Cc1nc(NCc2cnn(Cc3ccc(C#N)nc3)c2)nc2c1NC(=O)[C@H](C(C)C)N2C` [Compound 431, (7S)-5-((4-(((7-isopropyl-4,8-dimethyl-6-oxo-5,6,7,8-tetrahydropteridin-2-yl)amino)methyl)-1H-pyrazol-1-yl)methyl)picolinonitrile], the concentration for half-maximal inhibition (IC50) in assay [1] is under 0.3 µM. The “Percent Remaining Activity” value in assay [2] was 29%.
`Cc1nc(NCc2cnn(Cc3ccc(Cl)nc3)c2)nc2c1NC(=O)[C@H](C1CC1)N2C` [Compound 434, (7S)-2-(((1-((6-chloropyridin-3-yl)methyl)-1H-pyrazol-4-yl)methyl)amino)-7-cyclopropyl-4,8-dimethyl-7,8-dihydropteridin-6(5H)-one]: the 50% inhibitory concentration (IC50) in assay [1] was under 0.3 µM. Moreover, in assay [2], the “Percent Remaining Activity” value stood at 26%.
Take `Cc1nc(NCc2cnn(Cc3ccc(C(F)(F)F)nc3)c2)nc2c1NC(=O)[C@H](C(C)(C)C)N2C` [Compound 436, (7S)-7-(tert-butyl)-4,8-dimethyl-2-(((1-((6-(trifluoromethyl)pyridin-3-yl)methyl)-1H-pyrazol-4-yl)methyl)amino)-7,8-dihydropteridin-6(5H)-one]: the IC50 in assay [1] was under 0.3 µM. In assay [2], the “Percent Remaining Activity” value is given as 16%.
On to `Cc1nc(NCc2cnn(Cc3ccc(F)nc3)c2)nc2c1NC(=O)[C@H](C(C)(C)C)N2C` [Compound 437, (7S)-7-(tert-butyl)-2-(((1-((6-fluoropyridin-3-yl)methyl)-1H-pyrazol-4-yl)methyl)amino)-4,8-dimethyl-7,8-dihydropteridin-6(5H)-one], for which, in assay [1], the half-maximal inhibitory concentration (IC50) is under 0.3 µM. Besides, the “Percent Remaining Activity” value in assay [2] amounted to 20%.
On to `Cc1nc(NCc2cnn(Cc3ccc(C(F)(F)F)nc3)c2)nc2c1N(C)C(=O)[C@H](CCO)N2C` [Compound 443, (7S)-7-(2-hydroxyethyl)-4,5,8-trimethyl-2-(((1-((6-(trifluoromethyl)pyridin-3-yl)methyl)-1H-pyrazol-4-yl)methyl)amino)-7,8-dihydropteridin-6(5H)-one], for which, in assay [1], the IC50 was in the range of 0.3 to 1 µM. Moreover, the “Percent Remaining Activity” value in assay [2] is reported as 100%.
With `Cc1nc(NCc2cnn(Cc3ccc(Cl)nc3)c2)nc2c1N(C)C(=O)[C@H](CCO)N2C` [Compound 445, (7S)-2-(((1-((6-chloropyridin-3-yl)methyl)-1H-pyrazol-4-yl)methyl)amino)-7-(2-hydroxyethyl)-4,5,8-trimethyl-7,8-dihydropteridin-6(5H)-one], in assay [1], the IC50 was 0.3 to 1 µM. In addition, the “Percent Remaining Activity” value in assay [2] is 98%.
With `Cc1nc(NCc2cnn(Cc3ccnc(C(F)(F)F)c3)c2)nc2c1NC(=O)[C@H](C(C)C)N2C` [Compound 447, (S)-7-isopropyl-4,8-dimethyl-2-(((1-((2-(trifluoromethyl)pyridin-4-yl)methyl)-1H-pyrazol-4-yl)methyl)amino)-7,8-dihydropteridin-6(5H)-one], in assay [1], the 50% inhibitory concentration (IC50) was under 0.3 µM. Further, in assay [2], the “Percent Remaining Activity” value turned out to be 76%.
With `Cc1nc(NCc2cnn(Cc3cc(F)c(F)c(F)c3)c2)nc2c1NC(=O)[C@H](C(C)C)N2C` [Compound 449, (S)-7-isopropyl-4,8-dimethyl-2-(((1-(3,4,5-trifluorobenzyl)-1H-pyrazol-4-yl)methyl)amino)-7,8-dihydropteridin-6(5H)-one], the half-inhibitory concentration (IC50) in assay [1] is under 0.3 µM. The “Percent Remaining Activity” value in assay [2] came to 22%.
On to `COc1c(F)cc(Cn2cc(CNc3nc(C)c4c(n3)N(C)[C@@H](C(C)C)C(=O)N4)cn2)cc1F` [Compound 450, (S)-2-(((1-(3,5-difluoro-4-methoxybenzyl)-1H-pyrazol-4-yl)methyl)amino)-7-isopropyl-4,8-dimethyl-7,8-dihydropteridin-6(5H)-one], for which the IC50 in assay [1] was under 0.3 µM. Further, in assay [2], the “Percent Remaining Activity” value was 32%.
On to `Cc1nc(NCc2cnn(Cc3ccnc(C(F)(F)F)c3)c2)nc2c1NC(=O)[C@H](C1CC1)N2C` [Compound 455, (S)-7-cyclopropyl-4,8-dimethyl-2-(((1-((2-(trifluoromethyl)pyridin-4-yl)methyl)-1H-pyrazol-4-yl)methyl)amino)-7,8-dihydropteridin-6(5H)-one], for which the IC50 in assay [1] is under 0.3 µM. Further, the “Percent Remaining Activity” value in assay [2] was found to be 63%.
For `Cc1nc(NCc2cnn(Cc3ccnc(N(C)C)c3)c2)nc2c1NC(=O)[C@H](C1CC1)N2C` [Compound 466, (S)-7-cyclopropyl-2-(((1-((2-(dimethylamino)pyridin-4-yl)methyl)-1H-pyrazol-4-yl)methyl)amino)-4,8-dimethyl-7,8-dihydropteridin-6(5H)-one], in that order: under 0.3 µM and 101%.
Turning to `Cc1nc(NCc2cnn(Cc3cnc(Cl)s3)c2)nc2c1NC(=O)[C@H](C(C)C)N2C` [Compound 491, (S)-2-(((1-((2-chlorothiazol-5-yl)methyl)-1H-pyrazol-4-yl)methyl)amino)-7-isopropyl-4,8-dimethyl-7,8-dihydropteridin-6(5H)-one], the IC50 in assay [1] was under 0.3 µM. Besides, the “Percent Remaining Activity” value in assay [2] turned out to be 41%.
For `Cc1nc(NC2CN(C(=O)c3cc(F)c(F)c(F)c3)C2)nc2c1NC(=O)[C@H](C(C)C)N2C` [Compound 496, (S)-7-isopropyl-4,8-dimethyl-2-((1-(3,4,5-trifluorobenzoyl)azetidin-3-yl)amino)-7,8-dihydropteridin-6(5H)-one], in that order: under 0.3 µM and 17%.
As to `CO[C@H](C)[C@H]1C(=O)Nc2c(C)nc(NCc3cnn(Cc4ccc(Cl)nc4)c3)nc2N1C` [Compound 499, (S)-2-(((1-((6-chloropyridin-3-yl)methyl)-1H-pyrazol-4-yl)methyl)amino)-7-((R)-1-methoxyethyl)-4,8-dimethyl-7,8-dihydropteridin-6(5H)-one], the IC50 in assay [1] was under 0.3 µM. For the same compound, the “Percent Remaining Activity” value in assay [2] worked out at 31%.
Take `Cc1nc(NCc2cnn(Cc3ccc(C(F)F)nc3)c2)nc2c1NC(=O)[C@H](C(C)C)N2C` [Compound 500, (S)-2-(((1-((6-(difluoromethyl)pyridin-3-yl)methyl)-1H-pyrazol-4-yl)methyl)amino)-7-isopropyl-4,8-dimethyl-7,8-dihydropteridin-6(5H)-one]: in assay [1], the half-maximal inhibitory concentration (IC50) is under 0.3 µM. Also, the “Percent Remaining Activity” value in assay [2] amounted to 43%.
Consider `Cc1nc(NCc2cnn(Cc3ccc(C(F)F)nc3)c2)nc2c1NC(=O)[C@H](C1CC1)N2C` [Compound 501, (S)-7-cyclopropyl-2-(((1-((6-(difluoromethyl)pyridin-3-yl)methyl)-1H-pyrazol-4-yl)methyl)amino)-4,8-dimethyl-7,8-dihydropteridin-6(5H)-one], for which the IC50 in assay [1] was under 0.3 µM. In addition, the “Percent Remaining Activity” value in assay [2] stood at 53%.
For the compound `Cc1nc(NCc2cnn(Cc3ccc(C(C)(F)F)nc3)c2)nc2c1NC(=O)[C@H](C(C)C)N2C` [Compound 511, (S)-2-(((1-((6-(1,1-difluoroethyl)pyridin-3-yl)methyl)-1H-pyrazol-4-yl)methyl)amino)-7-isopropyl-4,8-dimethyl-7,8-dihydropteridin-6(5H)-one], in assay [1], the IC50 was under 0.3 µM. Moreover, the “Percent Remaining Activity” value in assay [2] is given as 52%.
